Measurements reported in patent publication US20230256036A1, “SERPIN PRODUCTION” (SOCIETE DES PRODUITS NESTLE S.A., priority 2020, published 2023).

Key:
[1] = tested on: serpin in Bifidobacterium longum subsp longum; assay: Serpin induction by LNT in culture medium containing glucose; assay type: cell-based; settings: only when the glucose is present at levels allowing its depletion during fermentation
Excerpt: LNT may be added to a conventional culture medium comprising up to 8 wt %, preferably up to 6 wt %, for example up to 4 wt %, of another sugar suitable to sustain B. longum growth, such as, but not limited to, glucose. […] Preferably the culture medium at the end of the fermentation contains less than 0.4 wt % glucose, such as from 0 wt % to 0.3 wt % glucose, for example from 0.02 wt % to 0.4 wt %, or from about 0.05 wt % to about 0.3 wt %. Conventional culture mediums suitable for growth of B. longum are well known to the person skilled in the art.

[2] = tested on: serpin protein in B. longum NCC 2705; assay: Serpin protein level by ELISA in B. longum NCC 2705 grown on HMOs; assay type: cell-based, Bifidobacterium longum subsp longum; settings: HMO 0.5 wt %, 16 h, FIG. 1
Experimental: (§1) B. longum strain CNCM I-2618 (NCC 2705) was grown in Biolector (growth conditions—anaerobic, 37° C.) in MRS+5 mM L-cysteine (MRSc) base without sugar, to which different commercially available Human Milk Oligosaccharides (HMOs) were added at a concentration of 0.5 wt %.
(§2) 48-well microtiter plate with pH sensor and dissolved oxygen (DO) sensor were used to culture the strains in Biolector (m2p-labs Aachen, Germany). It was continuously shaken to prevent bacteria aggregation for 16 h. Cultures were harvested by centrifugation and supernatant was removed. Pellet was resuspended in PBS supplemented with halt protease inhibitor (Sigma) and lysed using glassbeads. Lysate containing both soluble and insoluble material was then collected. Total protein content was measured using Pierce BCA kit (Thermofisher) and serpin protein concentration was determined using ELISA.

[3] = tested on: serpin protein in B. longum subsp. longum strains; assay: Serpin protein level by ELISA in B. longum subsp. longum strains grown on glucose or LNT; assay type: cell-based, Bifidobacterium longum subsp longum; settings: 0.5% LNT vs 0.5% glucose, 16 h, all tested strains, FIG. 2
Experimental: 48-well microtiter plate with pH sensor and dissolved oxygen (DO) sensor were used to culture the strains in Biolector [MUT]-labs Aachen, Germany). It was continuously shaken to prevent bacteria aggregation for 16 h. Cultures were harvested by centrifugation and supernatant was removed. Pellet was resuspended in PBS supplemented with halt protease inhibitor (Sigma) and lysed using glassbeads. Lysate containing both soluble and insoluble material was then collected. Total protein content was measured using Pierce BCA kit (Thermofisher) and serpin protein concentration was determined using ELISA. […] All strains were cultured in Biolector (according to example 1) in a MRSc base without sugar, to which 0.5% glucose or 0.5% of LNT was added. Cultures were grown for 16 h and harvested. Obtained pellets were further analyzed for total and serpin protein content (see example 1).

[4] = tested on: B. longum strain CNCM I-2618 (NCC 2705); assay: Growth of B. longum NCC 2705 in Biolector on MRSc base without sugar plus HMO; assay type: cell-based, Bifidobacterium longum subsp longum; settings: HMO 0.5 wt % in MRSc base without sugar, anaerobic, 37° C., 16 h
Experimental: as §1, §2

[5] = tested on: B. longum subsp. longum strains; assay: Growth of B. longum subsp. longum strains on LNT as sole carbohydrate source; assay type: cell-based, Bifidobacterium longum subsp longum; settings: 0.5% LNT in MRSc base without sugar, 16 h, all tested B. longum subsp. longum strains
Experimental: as §1, §2
The serpin encoding gene and its surrounding is highly conserved within the B. longum subsp. longum species. Strains of B. longum subsp. longum were selected to represent the entire span of the genetic phylogenetic tree (Table 2). All strains were cultured in Biolector (according to example 1) in a MRSc base without sugar, to which 0.5% glucose or 0.5% of LNT was added. Cultures were grown for 16 h and harvested. Obtained pellets were further analyzed for total and serpin protein content (see example 1).

CC(=O)N[C@H]1[C@H](O[C@H]2[C@@H](O)[C@@H](CO)O[C@@H](O[C@H]3[C@H](O)[C@@H](O)C(O)O[C@@H]3CO)[C@@H]2O)O[C@H](CO)[C@@H](O)[C@@H]1O[C@@H]1O[C@H](CO)[C@H](O)[C@H](O)[C@H]1O (some centres unmarked) [LNT, Lacto-N-tetraose]
induction of serpin production when glucose is present [1]: can induce production of serpin | levels of serpin protein in B. longum NCC 2705 [2]: significantly increase | serpin protein levels in B. longum subsp. longum strains [3]: increased | support of growth of B. longum NCC 2705 [4]: the only one supporting the growth | growth on LNT as sole carbohydrate source [5]: able to grow
